Measurements published in patent publication EP1820502A1, “Active substance combination comprising azolylcarbinol compounds” (LABORATORIOS DEL DR. ESTEVE, S.A., priority 2006, dated 2007).

System: mechanical allodynia/hyperalgesia in rats with unilateral ligatures of the sciatic nerve
Assay: Randall-Selitto test (pressure thresholds for paw withdrawal and vocalization) in rats with unilateral ligatures of the sciatic nerve
Type: in vivo
Conditions: two weeks after sciatic nerve ligature, cizolirtine 5 mg/kg i.p., gabapentin 30 mg/kg i.p., or both 5 min apart; for pressure thresholds for triggering vocalization (analgesic effect): Figure 2; for pressure thresholds to trigger paw withdrawal (analgesic effect): ipsilateral right hindpaw, Figure 1
Description: Ligatures of the right sciatic nerve were made in pentobarbital (50 mg/kg i.p.)-anesthetized rats according to the classical protocol of Bennett and Xie (1988) which is well known by those skilled in the art. Sham operated animals were subjected to the same surgical procedure except that the nerve was not ligated. Prior to surgery and two weeks afterwards, rats were subjected to the Randall-Selitto test to determine the pressure thresholds for triggering withdrawal of the ipsilateral, right hindpaw and vocalization. Animals were then immediately injected with either cizolirtine (5 mg/kg i.p.), gabapentin (30 mg/kg i.p.) or both drugs. In the latter case, a 5 min interval elapsed between the injection of cizolirtine (1st) and that of gabapentin (2nd). Time 0 on the abscissa (see Figs 1 & 2) corresponded to the second injection. The Randall-Selitto test was then applied for the determination of pressure thresholds at various times up to at least 5 hours thereafter.

## NCC1(CC(=O)O)CCCCC1 [Gabapentin, 1-(aminomethyl) cyclohexaneacetic acid]
  pressure thresholds for triggering vocalization (analgesic effect): decrease the threshold to trigger vocalization
  pressure thresholds to trigger paw withdrawal (analgesic effect): decrease the pressure threshold to trigger paw withdrawal

## CN(C)CCOC(c1ccccc1)c1ccnn1C (racemic) [Cizolirtine, (±)-N,N-dimethyl-2-((1-methyl-1H-pyrazol-5-yl)(phenyl)methoxy)ethanamine]
  pressure thresholds for triggering vocalization (analgesic effect): decrease the threshold to trigger vocalization
  pressure thresholds to trigger paw withdrawal (analgesic effect): decrease the pressure threshold to trigger paw withdrawal
